Data on three molecules can be found in EP1280522B1, “COMBINATION OF CARBOXYALKYLETHERS WITH ANTIHYPERTENSIVES AND PHARMACEUTICAL USE” (WARNER-LAMBERT COMPANY, priority 2000, dated 2001).

Assay [1] has as its system spontaneously hypertensive rats (SHR). Put plainly: Antihypertensive effect on MABP in SHR by radiotelemetry: CI-1027, quinapril and their combination (Example 1). Format: in vivo. To be noted: for MABP: peak MABP 2-4 hours postdose. The method, then: The antihypertensive effects of the carboxyalkylether compound of Formula III (CI-1027), alone and in combination with an antihypertensive agent such as quinapril (CI-906), were evaluated in rats according to the following protocol.
Male spontaneously hypertensive rats (SHR, 15-20 weeks old, Charles River Laboratories, Wilmington, Massachusetts) were prepared with indwelling aortic catheters and radiotransmitters (Data Sciences International, Saint Paul, Minnesota). The radiotransmitters provided continuous measurement of aortic blood pressure waveform. From the aortic blood pressure waveform a Ponemah (Gould Instruments Inc, Valley View, Ohio) computer provided mean arterial blood pressure (MABP) and heart rate values continuously as one-minute averages. One-minute data was then summarized at 15-minute intervals using Excel (Microsoft Corporation, Redmond, Washington) spreadsheets. Animals were allowed food and water ad libitum. To allow for recovery following surgery, rats were not dosed for a minimum of 7 days. Day 0 predose blood pressures were obtained by averaging eight 15-minute MABP measurements made 2 hours before dosing. To obtain the peak response to treatment (Days 0, 12, 16, 19, and 22), the 15-minute MABP measurements in the interval between 2 and 4 hours post-dose were averaged.
Test compounds were given in a vehicle that contained 96% water, 3% carbomethocellulose (Sigma Chemical, Saint Louis, Missouri) and 1% tween 88 (polyoxyethylenesorbitan monooleate, Sigma Chemical). CI-1027 and quinapril monotherapy were administered at 8:30 AM daily by oral gavage in a volume of 2 mL/kg. The combination of CI-1027 and quinapril was given as a single gavage in a volume of 2 mL/kg.
The experiment was carried out over 22 days in 4 groups of animals. Group I served as a control and received 2 mL/kglday of vehicle for 22 consecutive days. Group II, used to determine the antihypertensive response to quinapril monotherapy, was given vehicle for the first 12 to 13 consecutive days. Then on Day 13 to 14 quinapril was added at a dose of 0.3 mg/kg/day for 3 to 4 consecutive days; the dose was then increased to 1 mg/kg/day for the next 3 days, and on the final 3 days, 3 mg/kg/day was administered. To determine the response to CI-1027 monotherapy, Groups III and IV received 12-day treatment with CI-1027 monotherapy at doses of 30 and 100 mg/kg/day, respectively. To determine the antihypertensive response to the combination therapy quinapril, was added to the ongoing CI-1027 treatment (Day 13-14) using the rising dose protocol described for Group II (quinapril monotherapy).

In a further assay the test system is SHR. The experiment in a line: Antihypertensive effect on MABP in SHR by radiotelemetry: CI-1027, amlodipine and their combination (Example 2). Type of assay: in vivo, rats. To be noted: for MABP: peak MABP 4-6 hours postdose. The method, then:
The general procedure of Example 1 was followed to evaluate the antihypertensive efficacy of the carboxyalkylether CI-1027 alone and in combination with the calcium channel blocker amlodipine.
Male SHR (15-20 weeks old, Charles River Laboratories) were prepared with indwelling aortic catheters and radiotransmitters for continuous measurement of arterial blood pressure and heart rate. Animals were allowed food and water ad libitum. Before dosing all rats were given a minimum of 7 days for recovery from surgery.
The experiment was carried out over 22 days in 3 groups of SHR. Group I served as a control and received 2 mL/kg/day of vehicle (same as in Example 1) for 22 consecutive days. Group II, used to determined the antihypertensive response to amlodipine monotherapy, was given vehicle for the first 13 consecutive days. Then on Day 14, amlodipine was added at a dose of 0.3 mg/kg/day for 3 consecutive days. The dose was then increased to 1 mg/kg/day for the next 3 days, and on the final 3 days, 3 mg/kg/day was given. To determine the response to CI-1027 monotherapy, Group III received a 13-day treatment with CI-1027 monotherapy at a dose of 30 mg/kg/day. The antihypertensive response to the combination therapy was determined by the addition of amlodipine to ongoing CI-1027 treatment on Day 14.
Drugs were suspended or dissolved in vehicle that contains 96% water, 3% carboxymethocellulose, and 1% tween 88. Compounds were given at 9 AM daily by oral gavage in a volume of 2 mL/kg. The combination of CI-1027 and amlodipine was given as a single gavage in a volume of 2 mL/kg.

Where “and” joins values, the source holds several entries; their conditions need not be identical. Identical values can stand only once.

Turning to `CCOC(=O)[C@H](CCc1ccccc1)N[C@@H](C)C(=O)N1Cc2ccccc2C[C@H]1C(=O)O` [Quinapril, quinapril], the MABP is 122 ± 5 mm Hg in assay [1] (Group 2, Day 16, Quinapril 0.3 mg/kg/day oral gavage, mean ± standard error); 121 ± 4 mm Hg in assay [1] (Group 2, Day 19, Quinapril 1 mg/kg/day oral gavage, mean ± standard error); 117 mm Hg and 117 ± 4 mm Hg in assay [1] (Group 2, Day 22, Quinapril 3 mg/kg/day oral gavage, mean ± standard error). For the same molecule, the “antihypertensive response at 3 mg/kg/day greater than noted at 0.3 mg/kg/day” value in assay [1] (Quinapril monotherapy, rising dose protocol, difference between 3 and 0.3 mg/kg/day) turned out to be 5 mm Hg.
For `CCOC(=O)C1=C(COCCN)NC(C)=C(C(=O)OC)C1c1ccccc1Cl` (stereo not drawn) [Amlodipine, amlodipine], the MABP result is “Amlodipine (0.3 mg/kg/day) 140 ± 6 mm Hg” with SHR (Group 2, Day 16, Amlodipine 0.3 mg/kg/day oral gavage, mean ± standard error) and “Amlodipine (1 mg/kg/day) 131 ± 5 mm Hg” with SHR (Group 2, Day 19, Amlodipine 1 mg/kg/day oral gavage). In addition, in the assay on SHR (Rattus norvegicus, po, amlodipine monotherapy (Group II), rising dose protocol, read-out: threshold antihypertensive dose), the minimal effective dose stood at 1 mg/kg/day.
Turning to `CC(C)(CCCCOCCCCC(C)(C)C(=O)O)C(=O)O` [CI-1027], the MABP entry in the assay on SHR (Group 3, Day 0, CI-1027 30 mg/kg/day oral gavage, predose 131 ± 3) is “CI-1027 (30 mg/kg/day) 129 ± 4 mm Hg”; in assay [1] (Group 3, Day 0, CI-1027 30 mg/kg/day oral gavage, predose 149 ± 3), 145 ± 4 mm Hg; in assay [1] (Group 3, Day 12, CI-1027 30 mg/kg/day oral gavage, 30 mg/kg/day) it was 131 mm Hg and 131 ± 3 mm Hg; in assay [1] (Group 4, Day 0, CI-1027 100 mg/kg/day oral gavage, predose 141 ± 4), 141 ± 4 mm Hg. In assay [1] (CI-1027 monotherapy, 12 days, 30 and 100 mg/kg/day), the antihypertensive activity entry is on record as “modest”.
